From article PMC9944328 (Nature Communications, 2023)
Read-outs that look alike come from different tables or passages of the source.

System: SSTR2 mutants
Assay: SSTRs Gi-mediated cAMP inhibition, GloSensor, HEK293, 5 μM forskolin, 15 min room temperature (SSTR2 mutants)
Format: cell-based, human
Parameters: Best-fit Bottom, cAMP inhibition / Best-fit Top, cAMP inhibition / Span, cAMP inhibition / Bottom (best-fit value) / Top (best-fit value) / Span (best-fit value) / Span (best-fit) / Bottom (best-fit) / Top (best-fit) / Best-fit Bottom / Best-fit Top / Best-fit Span / Top / Span: scale not given here
Description: The levels of the intracellular 3′, 5′-cyclic AMP (cAMP) were measured by the GloSensor cAMP assay (Promega) as described in the previous studies[28],[41] which has been widely used. The human full-length SSTRs and mutants were cloned into the pcDNA3.1+ vector with a HA signal sequence followed by a Flag tag at the N-terminus. HEK293 cells (ATCC, CRL-1573) were seeded into 6-well microplates at a density of 1.0 × 10^6 cells/well and cultured for 24 h at 37 °C with 5% CO2. Cells were then co-transfected with SSTR wild-type or mutants and GloSensor plasmids. After 24 h of transfection, the cells were dissociated with TrypLE™ Express Enzyme (1X) (Thermo Fisher Scientific) and collected by centrifugation at 500 × g for 5 min. Then the collected cells were suspended in Hank’s balanced salt solution [HBSS (Thermo Fisher Scientific)] supplemented with […] (YEASEN), and then the suspension cells were seeded into 96-well plates with 90 μl/well. After incubating at room temperature for 40 min, 5 μM forskolin and ligands diluted in HBSS were added to each well and the plates were incubated at room temperature for 15 min. […] were measured using the Synergy H1 microplate reader (BioTek) and the data presented are means of at least three independent experiments.

C[C@@H](O)[C@@H]1NC(=O)[C@H](CCCCN)NC(=O)[C@@H](Cc2c[nH]c3ccccc23)NC(=O)[C@H](Cc2ccccc2)NC(=O)[C@@H](NC(=O)[C@H](N)Cc2ccccc2)CSSC[C@@H](C(=O)N[C@H](CO)[C@@H](C)O)NC1=O [octreotide]
Top (best-fit value) (I284A-1, run 1): 116.3
EC50 (I284A-1, run 1, read-out: EC50 (best-fit value)): 1.36 nM
Bottom (best-fit value) (I284A-2, run 2): -11.95
LogEC50 (best-fit value) (I284A-2, run 2): -9.363
Span (best-fit value) (I284A-2, run 2): 136.5
Top (best-fit value) (I284A-2, run 2): 124.6
EC50 (I284A-2, run 2, read-out: EC50 (best-fit value)): 0.433 nM
Bottom (best-fit value) (I284A-3, run 3): -6.083
LogEC50 (best-fit value) (I284A-3, run 3): -8.813
Span (best-fit value) (I284A-3, run 3): 75.58
Top (best-fit value) (I284A-3, run 3): 69.5
EC50 (I284A-3, run 3, read-out: EC50 (best-fit value)): 1.54 nM
Impact on Gi protein pathway (I284ECL3A and K291(7.32)A): relatively small
Best-fit Bottom (K291A-1): -13.76
Best-fit Span (K291A-1): 86.2
Best-fit Top (K291A-1): 72.44
LogEC50 (K291A-1): -8.384
EC50 (K291A-1, read-out: EC50): 4 nM
Best-fit Bottom (K291A-2): -3.629
Best-fit Span (K291A-2): 91.53
Best-fit Top (K291A-2): 87.9
LogEC50 (K291A-2): -8.328
EC50 (K291A-2, read-out: EC50): 4.7 nM
Best-fit Bottom (K291A-3): 3.692
Best-fit Span (K291A-3): 104.2
Best-fit Top (K291A-3): 107.9
LogEC50 (K291A-3): -8.123
EC50 (K291A-3, read-out: EC50): 7.54 nM
Best-fit Bottom (L290A-1): 32.91
Best-fit Span (L290A-1): 84.91
Best-fit Top (L290A-1): 117.8
LogEC50 (L290A-1): -9.231
EC50 (L290A-1, read-out: EC50): 0.588 nM
Best-fit Span (L290A-2): 90.85
Best-fit Top (L290A-2): 95.5
LogEC50 (L290A-2): -9.519
Best-fit Bottom (L290A-3): 2.997
Best-fit Span (L290A-3): 94.23
Best-fit Top (L290A-3): 97.22
LogEC50 (L290A-3): -9.438
EC50 (L290A-3, read-out: EC50): 0.365 nM
Gi signaling of mutant (N276(6.55)A): still exerted Gi signaling activation
Bottom (best-fit) (N276A-1): -14.21
LogEC50 (best-fit) (N276A-1): -7.981
Span (best-fit) (N276A-1): 75.87
Top (best-fit) (N276A-1): 61.65
EC50 (N276A-1, read-out: EC50 (best-fit)): 10.4 nM
Bottom (best-fit) (N276A-2): 0.8581
LogEC50 (best-fit) (N276A-2): -7.561
Span (best-fit) (N276A-2): 112.9
Top (best-fit) (N276A-2): 113.7
EC50 (N276A-2, read-out: EC50 (best-fit)): 27.5 nM
Bottom (best-fit) (N276A-3): 2.316
LogEC50 (best-fit) (N276A-3): -7.587
Span (best-fit) (N276A-3): 109.8
Top (best-fit) (N276A-3): 112.1
EC50 (N276A-3, read-out: EC50 (best-fit)): 25.9 nM
Bottom (best-fit) (P220A-1): 19.71
LogEC50 (best-fit) (P220A-1): -9.136
Span (best-fit) (P220A-1): 47.88
Top (best-fit) (P220A-1): 67.58
EC50 (P220A-1, read-out: EC50 (best-fit)): 0.732 nM
Bottom (best-fit) (P220A-2): 10.44
LogEC50 (best-fit) (P220A-2): -8.311
Span (best-fit) (P220A-2): 101.1
Top (best-fit) (P220A-2): 111.6
EC50 (P220A-2, read-out: EC50 (best-fit)): 4.88 nM
Bottom (best-fit) (P220A-3): 7.137
LogEC50 (best-fit) (P220A-3): -8.347
Span (best-fit) (P220A-3): 101.3
Top (best-fit) (P220A-3): 108.4
EC50 (P220A-3, read-out: EC50 (best-fit)): 4.5 nM
Bottom (best-fit value) (P286A-1, run 1): -1.561
LogEC50 (best-fit value) (P286A-1, run 1): -9.311
Span (best-fit value) (P286A-1, run 1): 110.5
Top (best-fit value) (P286A-1, run 1): 108.9
EC50 (P286A-1, run 1, read-out: EC50 (best-fit value)): 0.489 nM
Bottom (best-fit value) (P286A-2, run 2): -0.685
LogEC50 (best-fit value) (P286A-2, run 2): -9.269
Span (best-fit value) (P286A-2, run 2): 107.2
Top (best-fit value) (P286A-2, run 2): 106.5
EC50 (P286A-2, run 2, read-out: EC50 (best-fit value)): 0.539 nM
Bottom (best-fit value) (P286A-3, run 3): -0.6493
LogEC50 (best-fit value) (P286A-3, run 3): -9.076
Span (best-fit value) (P286A-3, run 3): 92.48
Top (best-fit value) (P286A-3, run 3): 91.83
EC50 (P286A-3, run 3, read-out: EC50 (best-fit value)): 0.84 nM
Best-fit Bottom (S279A-1): 9.876
Best-fit Span (S279A-1): 98.05
Best-fit Top (S279A-1): 107.9
LogEC50 (S279A-1): -9.015
EC50 (S279A-1, read-out: EC50): 0.966 nM
Best-fit Span (S279A-2): 101.7
Best-fit Top (S279A-2): 106.6
LogEC50 (S279A-2): -8.897
EC50 (S279A-2, read-out: EC50): 1.27 nM
Best-fit Bottom (S279A-3): 4.156
Best-fit Span (S279A-3): 86.31
Best-fit Top (S279A-3): 90.47
LogEC50 (S279A-3): -8.897
Bottom (best-fit value) (S285A-1, run 1): 7.122
LogEC50 (best-fit value) (S285A-1, run 1): -9.176
Span (best-fit value) (S285A-1, run 1): 90.01
Top (best-fit value) (S285A-1, run 1): 97.13
EC50 (S285A-1, run 1, read-out: EC50 (best-fit value)): 0.667 nM
Bottom (best-fit value) (S285A-2, run 2): 7.037
LogEC50 (best-fit value) (S285A-2, run 2): -9.15
Span (best-fit value) (S285A-2, run 2): 69.44
Top (best-fit value) (S285A-2, run 2): 76.48
EC50 (S285A-2, run 2, read-out: EC50 (best-fit value)): 0.707 nM
Bottom (best-fit value) (S285A-3, run 3): -3.857
LogEC50 (best-fit value) (S285A-3, run 3): -9.167
Span (best-fit value) (S285A-3, run 3): 92.79
Top (best-fit value) (S285A-3, run 3): 88.94
EC50 (S285A-3, run 3, read-out: EC50 (best-fit value)): 0.68 nM
Best-fit Bottom, cAMP inhibition (SSTR2 I195A-1, run 1): 1.138
